In test [1] the target is biotinylated human Gal-3 (hGal-3) (Homo sapiens, UniProt P17931). The test can be described thus: Competitive binding assay: biotinylated hGal-3 binding to microplate-adsorbed asialofetuin (ASF), spectrophotometric. Particulars: hGal-3, read-out: IC50 (Gal-3 inhibition). The essentials:
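Serially diluted compounds competed with asialofetuin on the plate for biotinylated human Gal-3 during a 3 h incubation at 4° C. Streptavidin-peroxidase with ABTS gave the spectrophotometric signal. IC50 values were averaged over repeat runs.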

The target in test [2] is human Gal-1 (hGal-1) (Homo sapiens, UniProt P09382). Nature of the test: Competitive binding assay: biotinylated hGal-1 binding to microplate-adsorbed asialofetuin (ASF), spectrophotometric. Particulars: hGal-1 binding to asialofetuin; Table 15; R and S epimers of selected Examples also listed; read-out: IC50 (Galectin-1 inhibition). The essentials:
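Spectrophotometric competition readout with ABTS after streptavidin-peroxidase (80 ng/mL, 1 h, 4 °C) detection of bound biotinylated hGal-1.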

Each structure is given as a SMILES string. Where two headings read alike, the source gives them in different places.

biotinylated human Gal-3 (hGal-3), sequence (P17931 whole entry): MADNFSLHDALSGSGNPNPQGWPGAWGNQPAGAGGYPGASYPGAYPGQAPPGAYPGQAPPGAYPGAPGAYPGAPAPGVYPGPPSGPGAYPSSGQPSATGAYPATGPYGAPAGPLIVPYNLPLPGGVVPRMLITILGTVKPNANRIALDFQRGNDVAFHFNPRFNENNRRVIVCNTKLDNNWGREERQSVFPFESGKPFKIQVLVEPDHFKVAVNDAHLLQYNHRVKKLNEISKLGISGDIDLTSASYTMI
human Gal-1 (hGal-1), sequence (P09382 whole entry): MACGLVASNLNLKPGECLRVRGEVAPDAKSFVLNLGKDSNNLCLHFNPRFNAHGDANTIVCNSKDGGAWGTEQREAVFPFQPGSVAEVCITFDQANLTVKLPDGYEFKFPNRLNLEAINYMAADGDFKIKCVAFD

For `CCC(CC)NC(=O)C(S[C@@H]1O[C@H](CO)[C@H](O)[C@H](n2cc(-c3cc(F)c(F)c(F)c3)nn2)[C@H]1OC)C1(O)CCC(F)(F)CC1` (stereo partly drawn) [Example 2.44.250.I., 2-(4,4-Difluoro-1-hydroxycyclohexyl)-2-(((2S,3R,4S,5R,6R)-5-hydroxy-6-(hydroxymethyl)-3-methoxy-4-(4-(3,4,5-trifluorophenyl)-1H-1,2,3-triazol-1-yl)tetrahydro-2H-pyran-2-yl)thio)-N-(pentan-3-yl)acetamide], the IC50 in test [1] (Table 12) amounted to 50 nM; in test [2] it was 270 nM.

With `CO[C@@H]1[C@@H](n2cc(-c3cc(F)c(F)c(F)c3)nn2)[C@@H](O)[C@@H](CO)O[C@H]1SC(C(=O)NC(C)C)C1(O)CCC(F)(F)CC1` (stereo partly drawn) [Example 2.44.251.I., 2-(4,4-Difluoro-1-hydroxycyclohexyl)-2-(((2S,3R,4S,5R,6R)-5-hydroxy-6-(hydroxymethyl)-3-methoxy-4-(4-(3,4,5-trifluorophenyl)-1H-1,2,3-triazol-1-yl)tetrahydro-2H-pyran-2-yl)thio)-N-isopropylacetamide], the IC50 in test [1] (Table 12) was 90 nM; in test [2] it was 190 nM.

`CO[C@@H]1[C@@H](n2cc(-c3cc(F)c(F)c(F)c3)nn2)[C@@H](O)[C@@H](CO)O[C@H]1SC(C(=O)NCCC(C)(C)C)C1(O)CCC(F)(F)CC1` (stereo partly drawn) [Example 2.44.252.I., 2-(4,4-Difluoro-1-hydroxycyclohexyl)-N-(3,3-dimethylbuty1)-2-(((2S,3R,4S,5R,6R)-5-hydroxy-6-(hydroxymethyl)-3-methoxy-4-(4-(3,4,5-trifluorophenyl)-1H-1,2,3-triazol-1-yl)tetrahydro-2H-pyran-2-yl)thio)acetamide]: the IC50 in test [1] (Table 12) was 320 nM; in test [2] it was 830 nM.

Regarding `CO[C@@H]1[C@@H](n2cc(-c3cc(F)c(F)c(F)c3)nn2)[C@@H](O)[C@@H](CO)O[C@H]1SC(C(=O)NC1CC(F)(F)C1)C1(O)CCC(F)(F)CC1` (stereo partly drawn) [Example 2.44.253.I., 2-(4,4-Difluoro-1-hydroxycyclohexyl)-N-(3,3-difluorocyclobutyl)-2-(((2S,3R,4S,5R,6R)-5-hydroxy-6-(hydroxymethyl)-3-methoxy-4-(4-(3,4,5-trifluorophenyl)-1H-1,2,3-triazol-1-yl)tetrahydro-2H-pyran-2-yl)thio)acetamide], the IC50 in test [1] (Table 12) worked out at 160 nM; in test [2], 670 nM.

`CO[C@@H]1[C@@H](n2cc(-c3cc(F)c(F)c(F)c3)nn2)[C@@H](O)[C@@H](CO)O[C@H]1SC(C(=O)NCC(F)(F)F)C1(O)CCC(F)(F)CC1` (stereo partly drawn) [Example 2.44.254.I., 2-(4,4-Difluoro-1-hydroxycyclohexyl)-2-(((2S,3R,4S,5R,6R)-5-hydroxy-6-(hydroxymethyl)-3-methoxy-4-(4-(3,4,5-trifluorophenyl)-1H-1,2,3-triazol-1-yl)tetrahydro-2H-pyran-2-yl)thio)-N-(2,2,2-trifluoroethyl)acetamide]: the 50% inhibitory concentration (IC50) in test [1] (Table 12) worked out at 130 nM; in test [2] it was 300 nM.

In the case of `CCN(CC1CC(F)(F)C1)C(=O)C(S[C@@H]1O[C@H](CO)[C@H](O)[C@H](n2cc(-c3cc(F)c(F)c(F)c3)nn2)[C@H]1OC)C1(O)CCC(F)(F)CC1` (stereo partly shown) [Example 2.44.256.I.], the IC50 came out at 50 nM in test [1] (Table 10) and 130 nM in test [2].

`CCN(C(=O)C(S[C@@H]1O[C@H](CO)[C@H](O)[C@H](n2cc(-c3cc(F)c(F)c(F)c3)nn2)[C@H]1OC)C1(O)CCC(F)(F)CC1)C1CCOCC1` (stereo partly shown) [Example 2.44.257.I.]: the IC50 in test [1] (Table 10) came to 70 nM; in test [2] it was 180 nM.

Regarding `CCN(C)C(=O)[C@H](S[C@@H]1O[C@H](CO)[C@H](O)[C@H](n2cc(-c3cc(F)c(F)c(F)c3)nn2)[C@H]1O)C1(O)CCN(S(C)(=O)=O)CC1` [Example 2.47.203R., (R)-2-(((2S,3R,4S,5R,6R)-3,5-Dihydroxy-6-(hydroxymethyl)-4-(4-(3,4,5-trifluorophenyl)-1H-1,2,3-triazol-1-yl)tetrahydro-2H-pyran-2-yl)thio)-N-ethyl-2-(4-hydroxy-1-(methylsulfonyl)piperidin-4-yl)-N-methylacetamide], the IC50 is 6770 nM in test [1] (Table 8) and 33900 nM in test [2].

By IC50 is commonly meant the midpoint of a concentration-inhibition curve.

For the origin of these results see US12410208B2, “(2-acetamidyl)thio-beta-D-galactopyranoside derivatives” (Idorsia Pharmaceuticals Ltd, priority 2020, dated 2025).
